Reference: ChEMBL document CHEMBL5303573, “Mapping human microbiome drug metabolism by gut bacteria and their genes” (Nature, 2019)

Columns and labels:
[1] = bacteroides intestinalis, 12 h, 2 µM
Description: The drug is tested on Bacteroides intestinalis strain: DSM17393 for biotransformation. The drug concentrations were measured before and after a 12-h incubation by liquid-chromatography-coupled mass spectrometry (LC–MS)

[2] = The drug is tested on Bacteroides dorei strain: DSM17855 for biotransformation. The drug concentrations were measured before and after a 12-h incubation by liquid-chromatography-coupled mass spectrometry (LC–MS); conditions: phocaeicola dorei, 2 µM
[3] = The drug is tested on Eubacterium rectale strain: ATCC33656 for biotransformation. The drug concentrations were measured before and after a 12-h incubation by liquid-chromatography-coupled mass spectrometry (LC–MS); conditions: agathobacter rectalis, 2 µM
[4] = roseburia intestinalis, 12 h, 2 µM
Description: The drug is tested on Roseburia intestinalis strain: L1-82 for biotransformation. The drug concentrations were measured before and after a 12-h incubation by liquid-chromatography-coupled mass spectrometry (LC–MS)

[5] = The drug is tested on Bifidobacterium longum subsp. Infantis strain: CCUG52486 for biotransformation. The drug concentrations were measured before and after a 12-h incubation by liquid-chromatography-coupled mass spectrometry (LC–MS); conditions: 2 µM
[6] = bacteroides eggerthii, 12 h, 2 µM
Description: The drug is tested on Bacteroides eggerthii strain: DSM20697 for biotransformation. The drug concentrations were measured before and after a 12-h incubation by liquid-chromatography-coupled mass spectrometry (LC–MS)

[7] = The drug is tested on Collinsella aerofaciens strain: ATCC25986 for biotransformation. The drug concentrations were measured before and after a 12-h incubation by liquid-chromatography-coupled mass spectrometry (LC–MS); conditions: 2 µM
[8] = The drug is tested on Bifidobacterium ruminantium strain: fecal isolate for biotransformation. The drug concentrations were measured before and after a 12-h incubation by liquid-chromatography-coupled mass spectrometry (LC–MS); conditions: 2 µM
[9] = The drug is tested on Bacteroides pectinophilus strain: ATCC43243 for biotransformation. The drug concentrations were measured before and after a 12-h incubation by liquid-chromatography-coupled mass spectrometry (LC–MS); conditions: 2 µM
[10] = The drug is tested on Collinsella intestinalis strain: DSM13280 for biotransformation. The drug concentrations were measured before and after a 12-h incubation by liquid-chromatography-coupled mass spectrometry (LC–MS); conditions: 2 µM
[11] = bacteroides thetaiotaomicron, 12 h, 2 µM
Description: The drug is tested on Bacteroides thetaiotaomicron strain: 7330 for biotransformation. The drug concentrations were measured before and after a 12-h incubation by liquid-chromatography-coupled mass spectrometry (LC–MS)

[12] = The drug is tested on Coprococcus comes strain: ATCC27758 for biotransformation. The drug concentrations were measured before and after a 12-h incubation by liquid-chromatography-coupled mass spectrometry (LC–MS); format: ADME; parameters: dose 2 uM, timepoint 0 vs 12 hours; conditions: 2 µM
[13] = segatella copri, 12 h, 2 µM
Description: The drug is tested on Prevotella copri strain: DSM18205 for biotransformation. The drug concentrations were measured before and after a 12-h incubation by liquid-chromatography-coupled mass spectrometry (LC–MS)

[14] = The drug is tested on Escherichia coli strain: BW25113 for biotransformation. The drug concentrations were measured before and after a 12-h incubation by liquid-chromatography-coupled mass spectrometry (LC–MS); conditions: 2 µM
[15] = The drug is tested on Clostridium sp. strain: fecal isolate for biotransformation. The drug concentrations were measured before and after a 12-h incubation by liquid-chromatography-coupled mass spectrometry (LC–MS); conditions: 2 µM
[16] = The drug is tested on Clostridium sporogenes strain: ATCC15579 for biotransformation. The drug concentrations were measured before and after a 12-h incubation by liquid-chromatography-coupled mass spectrometry (LC–MS); conditions: 2 µM
[17] = The drug is tested on Providencia stuartii strain: ATCC25827 for biotransformation. The drug concentrations were measured before and after a 12-h incubation by liquid-chromatography-coupled mass spectrometry (LC–MS); conditions: 2 µM
[18] = The drug is tested on Bacteroides fragilis strain: ATCC43859 for biotransformation. The drug concentrations were measured before and after a 12-h incubation by liquid-chromatography-coupled mass spectrometry (LC–MS); conditions: 2 µM
[19] = The drug is tested on Clostridium ramosum strain: DSM1402 for biotransformation. The drug concentrations were measured before and after a 12-h incubation by liquid-chromatography-coupled mass spectrometry (LC–MS); conditions: thomasclavelia ramosa, 2 µM

Row | SMILES | Bacterial Biotransformation [1] | Bacterial Biotransformation [2] | Bacterial Biotransformation [3] | Bacterial Biotransformation [4] | Bacterial Biotransformation [5] | Bacterial Biotransformation [6] | Bacterial Biotransformation [7] | Bacterial Biotransformation [8] | Bacterial Biotransformation [9] | Bacterial Biotransformation [10] | Bacterial Biotransformation [11] | Bacterial Biotransformation [12] | Bacterial Biotransformation [13] | Bacterial Biotransformation [14] | Bacterial Biotransformation [15] | Bacterial Biotransformation [16] | Bacterial Biotransformation [17] | Bacterial Biotransformation [18] | Bacterial Biotransformation [19]
1 | CN1[C@@H]2CC[C@H]1C[C@@H](OC(=O)C(CO)c1ccccc1)C2 (some centres not stated) [ATROPINE] | Compound NOT metabolized | Compound NOT metabolized | Compound NOT metabolized | Compound NOT metabolized | Compound NOT metabolized | Compound NOT metabolized | Compound NOT metabolized | Compound NOT metabolized | Compound NOT metabolized | Compound NOT metabolized | Compound NOT metabolized | Compound NOT metabolized | Compound NOT metabolized | – | – | – | – | – | –
2 | CCN(CC)CC#CCOC(=O)C(O)(c1ccccc1)C1CCCCC1.Cl (configuration not stated) [OXYBUTYNIN CHLORIDE] | Compound NOT metabolized | Compound metabolized | – | Compound NOT metabolized | – | – | Compound NOT metabolized | Compound metabolized | – | Compound NOT metabolized | Compound NOT metabolized | – | – | Compound NOT metabolized | Compound metabolized | Compound NOT metabolized | Compound NOT metabolized | – | –
3 | CN1CCOC(c2ccccc2)c2ccccc2C1 (configuration not stated) [NEFOPAM] | Compound NOT metabolized | – | Compound NOT metabolized | Compound NOT metabolized | Compound NOT metabolized | Compound NOT metabolized | Compound NOT metabolized | Compound NOT metabolized | Compound NOT metabolized | Compound NOT metabolized | Compound NOT metabolized | Compound NOT metabolized | Compound NOT metabolized | – | – | – | Compound NOT metabolized | Compound NOT metabolized | –
4 | CC(C)N(CCC(C(N)=O)(c1ccccc1)c1ccccn1)C(C)C.O=P(O)(O)O (configuration not stated) [DISOPYRAMIDE PHOSPHATE] | Compound NOT metabolized | Compound NOT metabolized | Compound NOT metabolized | Compound NOT metabolized | Compound NOT metabolized | Compound NOT metabolized | Compound NOT metabolized | – | Compound NOT metabolized | Compound NOT metabolized | – | Compound NOT metabolized | Compound NOT metabolized | – | – | – | Compound NOT metabolized | Compound NOT metabolized | –
5 | Cc1ccc(NC(=O)c2ccc(CN3CCN(C)CC3)cc2)cc1Nc1nccc(-c2cccnc2)n1 [IMATINIB] | Compound NOT metabolized | Compound NOT metabolized | – | Compound NOT metabolized | – | Compound NOT metabolized | Compound NOT metabolized | Compound NOT metabolized | – | Compound NOT metabolized | Compound NOT metabolized | Compound NOT metabolized | Compound NOT metabolized | – | – | – | Compound NOT metabolized | Compound NOT metabolized | –
6 | CC(C)c1c(CN(C)C(C)Cc2ccccc2)n(C)n(-c2ccccc2)c1=O (configuration not stated) [FAMPROFAZONE] | Compound metabolized | Compound metabolized | Compound NOT metabolized | Compound NOT metabolized | Compound NOT metabolized | Compound metabolized | Compound metabolized | – | Compound NOT metabolized | – | Compound metabolized | Compound NOT metabolized | Compound metabolized | Compound NOT metabolized | – | Compound NOT metabolized | Compound NOT metabolized | – | –
7 | Cc1cc2c(s1)Nc1ccccc1N=C2N1CCN(C)CC1 [OLANZAPINE] | Compound NOT metabolized | Compound NOT metabolized | Compound NOT metabolized | Compound NOT metabolized | Compound NOT metabolized | Compound NOT metabolized | Compound NOT metabolized | Compound NOT metabolized | Compound NOT metabolized | Compound NOT metabolized | Compound NOT metabolized | Compound NOT metabolized | Compound NOT metabolized | Compound NOT metabolized | – | Compound NOT metabolized | – | – | Compound NOT metabolized
8 | CN(C)CCC=C1c2ccccc2COc2ccccc21 [DOXEPIN] | Compound NOT metabolized | Compound NOT metabolized | Compound NOT metabolized | Compound NOT metabolized | Compound NOT metabolized | Compound NOT metabolized | Compound NOT metabolized | Compound NOT metabolized | – | Compound NOT metabolized | Compound NOT metabolized | Compound NOT metabolized | Compound NOT metabolized | Compound NOT metabolized | – | Compound NOT metabolized | Compound NOT metabolized | – | –
9 | COC(=O)Nc1nc2ccc(C(=O)c3ccccc3)cc2[nH]1 [MEBENDAZOLE] | Compound NOT metabolized | Compound metabolized | Compound NOT metabolized | Compound NOT metabolized | Compound NOT metabolized | Compound metabolized | – | Compound metabolized | Compound NOT metabolized | Compound NOT metabolized | – | Compound NOT metabolized | – | Compound NOT metabolized | Compound metabolized | – | – | – | Compound NOT metabolized
10 | CN(C)C(=O)Oc1cccc([N+](C)(C)C)c1.[Br-] [NEOSTIGMINE BROMIDE] | Compound NOT metabolized | Compound metabolized | Compound NOT metabolized | Compound NOT metabolized | Compound NOT metabolized | – | Compound NOT metabolized | Compound NOT metabolized | Compound NOT metabolized | Compound NOT metabolized | Compound metabolized | Compound NOT metabolized | – | Compound NOT metabolized | Compound NOT metabolized | Compound NOT metabolized | Compound NOT metabolized | – | Compound NOT metabolized
